Earlier results in patent US20230111712A1, “STABLE REACTIVE COMPOSITIONS FOR BIOCONJUGATION, PROBES, AND PROTEIN LABELING” (ARIZONA BOARD OF REGENTS ON BEHALF OF THE UNIVERSITY OF …, priority 2020, published 2023).

Conditions: reported value

SMILES: CCCN [propyl ammonium, propyl amine]
- pKa: 10.5
